{
  "source": "patent US20220152214A1",
  "about": "“CANCER TREATMENT WITH ROR1 ANTIBODY IMMUNOCONJUGATES” (VelosBio Inc., priority 2019, published 2022)",
  "assay": "Plasma pharmacokinetics of total antibody, total ADC-A and MMAE after ADC-A IV infusion",
  "type": "in vivo, human",
  "design": "Cmax/Dose / AUClast/Dose: unit not given beside the values",
  "details": "plasma analyte = label",
  "method": "The following describes a protocol for evaluating the safety, pharmacokinetics, pharmacodynamics, immunogenicity, and efficacy of a ROR1 immunoconjugate (ADC-A) across a range of dose levels when administered to subjects with previously treated relapsed or refractory CLL/SLL, MCL, FL, MZL, DLBCL, RTL, BL, LPL/WM, T cell NHL, ALL, or AML. ADC-A is administered intravenously (IV) in repeated 3-week cycles with a drug infusion on Day 1 of each cycle (Q1/3W [Schedule 1]); in repeated 3-week cycles with drug infusions on Days 1 and 8 of each cycle (Q2/3W [Schedule 2]); or in repeated 4-week cycles with drug infusions on Days 1, 8, and 15 of each cycle (Q3/4W [Schedule 3]) over a planned infusion time of ˜30 minutes. Infusion times may be extended as necessary to accommodate individual subject tolerance of treatment.",
  "key": {"[1]": {"details": "after ADC-A 0.5 mg/kg IV Q1/3W (n = 1)"}, "[2]": {"details": "after ADC-A 1.0 mg/kg IV Q1/3W (n = 3)"}, "[3]": {"details": "after ADC-A 1.5 mg/kg IV Q1/3W (n = 3)"}, "[4]": {"details": "after ADC-A 2.25 mg/kg IV Q1/3W (n = 9)"}, "[5]": {"details": "after ADC-A 2.5 mg/kg IV Q1/3W (n = 4)"}},
  "note": "Where a SMILES comes first, the peptide text is derived from it. [ ]: non-standard residue; d: D form. The star is where a group is joined. Dolaproine = CO[C@@H]([C@@H]1CCCN1)[C@@H](C)C(=O)O; Dil = CC[C@H](C)[C@H](NC)[C@@H](CC(=O)O)OC; X1 = C[C@@H](N*)[C@@H](O)c1ccccc1; NMeV = CN[C@H](C(=O)O)C(C)C",
  "data": [
    {"compound": "CC[C@H](C)[C@@H]([C@@H](CC(=O)N1CCC[C@H]1[C@H](OC)[C@@H](C)C(=O)N[C@H](C)[C@@H](O)c1ccccc1)OC)N(C)C(=O)[C@@H](NC(=O)[C@@H](NC)C(C)C)C(C)C", "note": "[MMAE, monomethyl auristatin E] (H-[NMeV]V[Dil][Dolaproine]-X1)", "values": [
      {"measurement": "Increases in Cmax and AUC with dose", "setting": "ADC-A 0.5 to 2.5 mg/kg IV Q1/3W", "result": "somewhat less than dose-proportional"},
      {"measurement": "AUClast", "setting": "[1]", "result": 271, "unit": "ng·h/mL"},
      {"measurement": "AUClast/Dose", "setting": "[1]", "result": 0.5420},
      {"measurement": "Cmax", "setting": "[1]", "result": 1.15, "unit": "ng/mL"},
      {"measurement": "Cmax/Dose", "setting": "[1]", "result": 0.0023},
      {"measurement": "Tmax", "setting": "[1]", "result": 48, "unit": "h"},
      {"measurement": "AUClast", "setting": "[2]", "result": 467, "unit": "ng·h/mL"},
      {"measurement": "AUClast/Dose", "setting": "[2]", "result": 0.4673},
      {"measurement": "Cmax", "setting": "[2]", "result": 2.66, "unit": "ng/mL"},
      {"measurement": "Cmax/Dose", "setting": "[2]", "result": 0.0027},
      {"measurement": "Tmax", "setting": "[2]", "result": 48, "unit": "h"},
      {"measurement": "AUClast", "setting": "[3]", "result": 390, "unit": "ng·h/mL"},
      {"measurement": "AUClast/Dose", "setting": "[3]", "result": 0.2600},
      {"measurement": "Cmax", "setting": "[3]", "result": 1.66, "unit": "ng/mL"},
      {"measurement": "Cmax/Dose", "setting": "[3]", "result": 0.0011},
      {"measurement": "Tmax", "setting": "[3]", "result": 88.7, "unit": "h"},
      {"measurement": "AUClast", "setting": "[4]", "result": 698, "unit": "ng·h/mL"},
      {"measurement": "AUClast/Dose", "setting": "[4]", "result": 0.3102},
      {"measurement": "Cmax", "setting": "[4]", "result": 4.43, "unit": "ng/mL"},
      {"measurement": "Cmax/Dose", "setting": "[4]", "result": 0.0020},
      {"measurement": "Tmax", "setting": "[4]", "result": 75.1, "unit": "h"},
      {"measurement": "AUClast", "setting": "[5]", "result": 994.8, "unit": "ng·h/mL"},
      {"measurement": "AUClast/Dose", "setting": "[5]", "result": 0.3979},
      {"measurement": "Cmax", "setting": "[5]", "result": 6.7, "unit": "ng/mL"},
      {"measurement": "Cmax/Dose", "setting": "[5]", "result": 0.0027},
      {"measurement": "Tmax", "setting": "[5]", "result": 78.5, "unit": "h"}
    ]}
  ]
}
